Source: patent US12612661B2, “Compositions and methods for assessing the efficacy of inhibitors of neurotransmitter transporters” (DENOVO BIOPHARMA LLC, priority 2020, dated 2026)

Experiments:
C. elegans = details: oxidative stress; ANK3/unc-44 expression necessary; cited from earlier work
patients with MDD [1] = details: overall population, CN162006 and CN162007; cited from earlier work
[2] = phase 2 clinical studies; cited from earlier work
SERT = molecular target: T1, SERT (Homo sapiens, UniProt P31645); experiment: In vitro competition binding, membranes from HEK cell lines overexpressing SERT; details: radioligand at its Kd concentration; IC50 only in FIG. 1A table
T1 construct: expressed in transfected cells; host or cells: HEK cell line overexpressing the transporter; membranes
Source text: (§1) FIG. 1 depicts exemplary DB104 structure, preclinical result, and clinical trial design. […] In vitro Binding Result: Competition binding experiments were utilized to determine the in vitro binding potencies (IC50 values) of BMS-820836 for SERT, DAT, and NET. Membranes prepared from human embryonic kidney (HEK) cell lines overexpressing each transporter were employed in the assays. Radioligands were used at their respective affinity constant (Kd) concentrations for each transporter to enable direct comparisons of the IC50 values between assays. Monoamine Reupdate inhibition: Cell-based assays were used to determine the ability of BMS-820836 to inhibit reuptake of 3H-labeled dopamine ([^3H]DA), norepinephrine ([^3H]NE), and serotonin ([^3H]5-HT).

patients with MDD [3] = experiment: Phase 2b efficacy studies CN162006 and CN162007, MADRS total score, analysed by rs12217173 genotype; format: in vivo, human
Procedure: The Phase 2b program for DB104 consists of two efficacy studies (CN162006 and CN162007), and both efficacy studies have a similar design and include patients with MDD. CN162006 is flexible-dose study where patients with a history of inadequate response to at least one but less than four antidepressants and one prospective treatment (duloxetine) are switched to flexibly-dosed DB104 (0.5-2 mg/d) or remain on duloxetine (Bhagwagar Z. et al. 2015). CN162007 is a fixed dose, dose-response study where patients with a history of inadequate response to at least one but less than four antidepressants and one prospective treatment (duloxetine/escitalopram) are switched to fixed doses of DB104 (0.25, 0.5, 1, 2 mg/day) or remain on duloxetine/escitalopram (FIG. 1B and 1C). […] (Bhagwagar Z. et al. 2015.)
We were provided with a large number of whole blood samples that were collected from the above phase II clinical trials (CN162-006 and CN162-007), and these samples corresponded to 233 unique patients that had received DB104 and completed the trial adequately to measure their response to treatment. Thus, germline DNA samples extracted from blood of patients enrolled in these two trials were used to identify pharmacogenetic biomarker for DB104. For the discovery phase, 188 samples were selected, and the remaining 45 samples would be left for validating any potential SNPs using PCR. The discover and validation datasets were balanced for race and dose/trial number. In discovery phase, 188 samples from DB104 treatment group were genotyped using the Illumina 4.5 million whole genome SNP arrays. Two (2) out of the 188 samples failed QC and were excluded from the genome-wide analysis but added to the validation set. From this genome wide screen from 186 samples, we have identified SNP rs12217173 which has a p-value of 6.609×10^−8, which is very close to genome-wide significance cut-off of 5×10^−8, especially given the limited sample size of this study.
To confirm the finding of rs12217173 as possible pharmacogenetic biomarker to predict DB104 efficacy, we next measured its genotype with Taqman SNP assay using the validation set which consists 47 patients, including two additional samples failed in genome-wide scan QC but passed real time PCR QC. […] Thus, patients with GG genotype were defined as the responders and patients carrying AA or AG genotype are defined as non-responders to DB104 treatment.
To examine whether rs12217173 is merely a prognostic biomarker for the disease instead of specific pharmacogenomic biomarker for DB104, DNA samples from 182 patients from the control group treated with duloxetine/escitalopram were genotyped using the Taqman SNP assays. […] Therefore, rs12217173 associated improvement in MADRS is related to DB104 treatment, and rs12217173 appears to be a pharmacogenomics biomarker for predicting DB104's anti-depression activity, and thus it is named as DGM4 (Denovo Genomic Marker 4).
CN162006 is flexible-dose study where DB104 doses ranged from 0.5-2 mg/d, and CN162007 is a fixed dose, dose-response study where patients were treated with doses of DB104 at 0.25, 0.5, 1, or 2 mg/day. Due to the limitation on samples available for the genome-wide study, the analysis described in previous section was not treating patients taking different doses of DB104 differently. In order to refine our analysis, we have further evaluated the effect of DB104 dose in these two studies. In CN162006, the mean and median average dose per day is 1.5 mg, and 94% patients received doses of 1 to 2 mg per day.

HEK293/hDAT cells = molecular target: T2, HEK293/hDAT cells (Homo sapiens, UniProt Q01959); experiment: Cell-based monoamine reuptake inhibition, [3H]DA uptake; details: IC50 only in FIG. 1A table
T2 construct: expressed in transfected cells; host or cells: HEK293/hDAT cells
Source text: as §1

DAT = molecular target: T3, DAT (Homo sapiens, UniProt Q01959); experiment: In vitro competition binding, membranes from HEK cell lines overexpressing DAT; details: radioligand at its Kd concentration; IC50 only in FIG. 1A table
T3 construct: expressed in transfected cells; host or cells: HEK cell line overexpressing the transporter; membranes
Source text: as §1

NET = molecular target: T4, NET (Homo sapiens, UniProt P23975); experiment: In vitro competition binding, membranes from HEK cell lines overexpressing NET; details: radioligand at its Kd concentration; IC50 only in FIG. 1A table
T4 construct: expressed in transfected cells; host or cells: HEK cell line overexpressing the transporter; membranes
Source text: as §1

[4] = GG genotype, week 5 and 6, excluding 0.25 and 0.5 mg

T3 sequence (Q01959 whole entry): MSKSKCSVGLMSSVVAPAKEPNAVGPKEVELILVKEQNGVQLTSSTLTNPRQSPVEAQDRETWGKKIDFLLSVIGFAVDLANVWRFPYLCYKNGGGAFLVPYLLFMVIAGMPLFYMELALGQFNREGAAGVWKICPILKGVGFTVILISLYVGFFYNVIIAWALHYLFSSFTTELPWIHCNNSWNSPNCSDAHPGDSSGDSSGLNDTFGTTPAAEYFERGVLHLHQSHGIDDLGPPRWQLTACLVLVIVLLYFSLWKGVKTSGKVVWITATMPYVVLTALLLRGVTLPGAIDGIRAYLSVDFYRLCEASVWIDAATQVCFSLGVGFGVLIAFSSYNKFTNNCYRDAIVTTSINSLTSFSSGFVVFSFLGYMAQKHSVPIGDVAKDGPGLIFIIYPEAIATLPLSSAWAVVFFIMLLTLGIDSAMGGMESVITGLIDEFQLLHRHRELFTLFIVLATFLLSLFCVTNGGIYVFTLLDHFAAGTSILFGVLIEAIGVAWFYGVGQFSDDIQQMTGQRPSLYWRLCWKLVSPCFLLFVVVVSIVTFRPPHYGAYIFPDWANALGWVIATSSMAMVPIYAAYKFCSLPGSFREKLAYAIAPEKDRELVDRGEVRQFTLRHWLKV
T2 sequence (Q01959 whole entry): as above
T4 sequence (P23975 whole entry): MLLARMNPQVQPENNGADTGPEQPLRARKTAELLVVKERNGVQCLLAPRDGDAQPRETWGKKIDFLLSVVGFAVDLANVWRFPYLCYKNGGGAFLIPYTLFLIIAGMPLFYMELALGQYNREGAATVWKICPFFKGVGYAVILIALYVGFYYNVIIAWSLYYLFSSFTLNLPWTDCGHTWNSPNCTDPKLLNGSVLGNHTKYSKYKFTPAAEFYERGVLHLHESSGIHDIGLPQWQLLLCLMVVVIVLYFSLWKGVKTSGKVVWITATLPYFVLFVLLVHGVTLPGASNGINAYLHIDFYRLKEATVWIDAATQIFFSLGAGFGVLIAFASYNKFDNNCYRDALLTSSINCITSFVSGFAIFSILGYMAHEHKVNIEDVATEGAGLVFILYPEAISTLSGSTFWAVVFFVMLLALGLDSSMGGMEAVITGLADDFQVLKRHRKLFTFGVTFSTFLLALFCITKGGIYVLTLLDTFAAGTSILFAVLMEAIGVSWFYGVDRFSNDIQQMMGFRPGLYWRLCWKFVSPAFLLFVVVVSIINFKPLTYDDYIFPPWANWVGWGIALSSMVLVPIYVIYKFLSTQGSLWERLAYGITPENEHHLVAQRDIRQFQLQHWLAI
T1 sequence (P31645 whole entry): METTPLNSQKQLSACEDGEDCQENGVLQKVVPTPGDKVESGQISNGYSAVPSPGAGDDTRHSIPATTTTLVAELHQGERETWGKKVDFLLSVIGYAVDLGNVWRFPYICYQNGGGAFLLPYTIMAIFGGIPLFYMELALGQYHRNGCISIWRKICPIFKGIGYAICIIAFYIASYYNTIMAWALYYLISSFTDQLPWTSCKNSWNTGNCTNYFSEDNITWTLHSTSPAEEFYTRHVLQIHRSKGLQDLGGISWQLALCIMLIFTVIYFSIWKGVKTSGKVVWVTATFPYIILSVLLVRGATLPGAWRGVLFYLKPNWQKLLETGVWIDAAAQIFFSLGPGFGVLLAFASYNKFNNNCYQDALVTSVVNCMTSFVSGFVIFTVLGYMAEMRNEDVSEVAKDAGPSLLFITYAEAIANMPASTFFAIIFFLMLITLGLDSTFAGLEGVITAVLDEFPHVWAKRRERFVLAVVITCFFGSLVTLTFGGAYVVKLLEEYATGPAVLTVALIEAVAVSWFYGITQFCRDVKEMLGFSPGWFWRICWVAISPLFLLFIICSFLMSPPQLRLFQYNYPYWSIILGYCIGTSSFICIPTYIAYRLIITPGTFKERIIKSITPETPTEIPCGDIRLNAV

Compound	lifespan (C. elegans)	MADRS total score change from baseline at week 6 (primary endpoint), DB104 vs. continuation of duloxetine/escitalopram (patients with MDD [1])	discontinuations due to adverse events [2]	tolerability [2]	saturation of SERT binding sites in competition binding (SERT)	efficacy by dose in patients carrying GG genotype (patients with MDD [3]; CN162007, 0.25, 0.5, 1, 2 mg/day)	MADRS Remission Rate vs SOC treatment group (patients with MDD [3]; [4])	MADRS Response Rate vs SOC treatment group (patients with MDD [3]; [4])	MADRS total score reduction vs SOC treatment group (patients with MDD [3]; [4])	MADRS score change, GG vs AA or AG genotype (patients with MDD [3]; discovery and validation datasets combined)	improvement on MADRS change from the baseline, GG vs AA or AG genotype and vs standard of care (patients with MDD [3]; discovery set (186 patients), GG allele of rs12217173)	MADRS, DB104 treatment group vs SOC treatment group (patients with MDD [3]; pooled 006 and 007 at 1 mg and 2 mg, all genotypes, any time point)	MADRS score reduction from the baseline (patients with MDD [3]; validation set (47 patients), DB104-treated patients carrying GG at rs12217173) [points]	MADRS score reduction from the baseline (patients with MDD [3]; validation set, DB104-treated patients carrying AA or AG genotype)	inhibition of uptake of [3H]DA (HEK293/hDAT cells)	saturation of DAT binding sites in competition binding (DAT)	saturation of NET binding sites in competition binding (NET)
CN1CCN2c3ccccc3Cc3ccccc3C2C1 (centres unmarked) [mianserin]	increase lifespan																
CN1Cc2cc(-c3ccc(N)nn3)ccc2[C@H](c2ccc3ccccc3c2)C1 [DB104, liafensine]		neither study demonstrated significant improvement	no evidence of dose-dependent discontinuations due to adverse events	well tolerated	completely saturated	1 mg and 2 mg group exhibited similar efficacy, and both are much better than 0.25 mg and 0.5 mg group	statistical significance	statistical significance	statistical significance	much improved MADRS score change	much better improvement	no significant differences	~16	eight	potently and completely inhibited	completely saturated	completely saturated
